From paper PMC5540273, “Progress towards a public chemogenomic set for protein kinases and a call for contributions” (PLoS ONE, 2017) come the findings set out here.

What all share (assay): KINOMEscan competition binding
Test [1] addresses T1, CTK (Homo sapiens, UniProt P42679).
T1 sequence (P42679 1-507): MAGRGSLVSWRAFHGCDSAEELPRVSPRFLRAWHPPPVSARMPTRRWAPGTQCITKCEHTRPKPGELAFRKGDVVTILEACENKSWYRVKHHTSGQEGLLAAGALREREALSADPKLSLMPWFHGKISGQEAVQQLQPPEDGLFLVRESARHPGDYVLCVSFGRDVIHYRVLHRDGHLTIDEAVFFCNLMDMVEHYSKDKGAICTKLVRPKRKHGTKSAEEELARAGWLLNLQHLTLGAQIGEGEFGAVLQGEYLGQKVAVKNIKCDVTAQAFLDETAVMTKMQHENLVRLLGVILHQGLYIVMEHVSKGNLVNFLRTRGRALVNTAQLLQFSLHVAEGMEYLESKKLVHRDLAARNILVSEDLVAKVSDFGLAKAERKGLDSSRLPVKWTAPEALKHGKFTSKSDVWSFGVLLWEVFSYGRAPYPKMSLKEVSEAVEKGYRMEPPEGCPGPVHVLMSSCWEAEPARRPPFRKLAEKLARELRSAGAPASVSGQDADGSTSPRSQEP
The conditions noted are these: read-out: %Inh CTK.

In test [2] the target is ERBB3 (Homo sapiens, UniProt P21860). Conditions: read-out: %Inh ERBB3.
Chain of ERBB3 (P21860 20-1342): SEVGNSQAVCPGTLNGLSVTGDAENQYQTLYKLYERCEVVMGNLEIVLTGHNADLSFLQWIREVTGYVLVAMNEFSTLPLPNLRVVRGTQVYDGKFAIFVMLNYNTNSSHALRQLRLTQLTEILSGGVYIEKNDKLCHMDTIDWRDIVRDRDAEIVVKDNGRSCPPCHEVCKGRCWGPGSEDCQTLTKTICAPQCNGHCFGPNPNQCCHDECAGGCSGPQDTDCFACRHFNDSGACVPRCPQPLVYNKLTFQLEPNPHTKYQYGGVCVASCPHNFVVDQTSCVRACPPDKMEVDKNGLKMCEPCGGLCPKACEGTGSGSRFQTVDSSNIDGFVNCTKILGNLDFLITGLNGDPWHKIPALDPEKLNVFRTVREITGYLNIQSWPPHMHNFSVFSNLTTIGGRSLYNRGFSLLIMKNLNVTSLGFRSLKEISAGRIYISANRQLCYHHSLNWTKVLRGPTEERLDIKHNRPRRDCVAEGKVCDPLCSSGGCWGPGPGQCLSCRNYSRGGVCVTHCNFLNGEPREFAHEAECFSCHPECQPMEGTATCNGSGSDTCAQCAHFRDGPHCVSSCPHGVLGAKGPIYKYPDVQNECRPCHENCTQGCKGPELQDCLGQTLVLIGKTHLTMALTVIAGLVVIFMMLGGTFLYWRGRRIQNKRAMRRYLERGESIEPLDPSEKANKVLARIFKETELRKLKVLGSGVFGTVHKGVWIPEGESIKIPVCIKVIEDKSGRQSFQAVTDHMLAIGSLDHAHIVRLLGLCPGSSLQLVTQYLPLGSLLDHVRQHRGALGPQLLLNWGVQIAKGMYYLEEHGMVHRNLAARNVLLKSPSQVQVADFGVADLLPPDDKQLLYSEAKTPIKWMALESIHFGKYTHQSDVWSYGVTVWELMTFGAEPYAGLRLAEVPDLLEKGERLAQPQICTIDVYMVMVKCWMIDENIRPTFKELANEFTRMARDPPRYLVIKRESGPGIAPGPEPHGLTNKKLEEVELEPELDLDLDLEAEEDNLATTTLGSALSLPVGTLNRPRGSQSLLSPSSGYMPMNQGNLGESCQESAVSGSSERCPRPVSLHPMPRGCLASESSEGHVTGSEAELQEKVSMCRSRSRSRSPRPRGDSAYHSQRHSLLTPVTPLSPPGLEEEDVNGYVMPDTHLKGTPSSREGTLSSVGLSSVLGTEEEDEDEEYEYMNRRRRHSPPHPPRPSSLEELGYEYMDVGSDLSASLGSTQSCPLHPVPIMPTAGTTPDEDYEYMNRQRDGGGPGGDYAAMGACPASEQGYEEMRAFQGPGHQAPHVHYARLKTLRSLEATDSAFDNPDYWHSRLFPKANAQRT
In test [3] the target is FRK (Homo sapiens, UniProt P42685). The conditions noted are these: read-out: %Inh FRK.
Chain of FRK (P42685 whole entry): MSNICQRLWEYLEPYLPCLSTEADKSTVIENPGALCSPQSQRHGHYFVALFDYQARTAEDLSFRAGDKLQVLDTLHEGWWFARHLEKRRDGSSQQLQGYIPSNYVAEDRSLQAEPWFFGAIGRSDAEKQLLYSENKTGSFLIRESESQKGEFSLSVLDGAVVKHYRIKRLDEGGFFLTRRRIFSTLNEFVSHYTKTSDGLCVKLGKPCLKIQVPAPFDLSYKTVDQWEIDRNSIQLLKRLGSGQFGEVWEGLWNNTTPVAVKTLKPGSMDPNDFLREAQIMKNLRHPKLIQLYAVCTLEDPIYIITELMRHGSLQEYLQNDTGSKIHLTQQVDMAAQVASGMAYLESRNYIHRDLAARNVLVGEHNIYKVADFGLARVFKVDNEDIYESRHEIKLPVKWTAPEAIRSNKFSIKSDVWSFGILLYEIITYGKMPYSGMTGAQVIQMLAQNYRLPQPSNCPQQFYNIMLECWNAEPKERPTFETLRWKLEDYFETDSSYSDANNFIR
The target in test [4] is T2, DCAMKL2 (Homo sapiens, UniProt Q8N568).
T2 sequence (Q8N568 1-766): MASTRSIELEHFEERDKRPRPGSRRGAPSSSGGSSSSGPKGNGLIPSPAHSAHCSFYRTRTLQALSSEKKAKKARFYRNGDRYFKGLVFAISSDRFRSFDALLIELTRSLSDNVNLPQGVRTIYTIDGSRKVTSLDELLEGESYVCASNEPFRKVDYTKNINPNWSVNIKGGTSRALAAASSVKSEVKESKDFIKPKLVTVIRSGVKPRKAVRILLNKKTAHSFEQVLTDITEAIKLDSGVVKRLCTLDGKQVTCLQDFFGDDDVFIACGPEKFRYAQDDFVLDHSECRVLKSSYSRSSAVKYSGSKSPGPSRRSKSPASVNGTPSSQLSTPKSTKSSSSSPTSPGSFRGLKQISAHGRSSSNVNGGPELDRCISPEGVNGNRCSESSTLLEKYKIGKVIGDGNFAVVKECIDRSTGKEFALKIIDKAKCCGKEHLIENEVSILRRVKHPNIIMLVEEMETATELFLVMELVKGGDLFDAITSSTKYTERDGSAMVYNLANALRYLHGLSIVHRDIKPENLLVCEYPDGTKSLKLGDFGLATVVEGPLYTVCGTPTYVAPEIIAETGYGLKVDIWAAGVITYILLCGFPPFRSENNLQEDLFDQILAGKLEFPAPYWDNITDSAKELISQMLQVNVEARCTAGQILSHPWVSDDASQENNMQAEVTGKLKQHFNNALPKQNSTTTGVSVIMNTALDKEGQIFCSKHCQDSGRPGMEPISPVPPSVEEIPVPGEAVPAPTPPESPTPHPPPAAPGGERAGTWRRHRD
Conditions: read-out: %Inh DCAMKL2.

Test [5] has as its target T3, DLK (Homo sapiens, UniProt Q12852).
T3 sequence (Q12852 1-859): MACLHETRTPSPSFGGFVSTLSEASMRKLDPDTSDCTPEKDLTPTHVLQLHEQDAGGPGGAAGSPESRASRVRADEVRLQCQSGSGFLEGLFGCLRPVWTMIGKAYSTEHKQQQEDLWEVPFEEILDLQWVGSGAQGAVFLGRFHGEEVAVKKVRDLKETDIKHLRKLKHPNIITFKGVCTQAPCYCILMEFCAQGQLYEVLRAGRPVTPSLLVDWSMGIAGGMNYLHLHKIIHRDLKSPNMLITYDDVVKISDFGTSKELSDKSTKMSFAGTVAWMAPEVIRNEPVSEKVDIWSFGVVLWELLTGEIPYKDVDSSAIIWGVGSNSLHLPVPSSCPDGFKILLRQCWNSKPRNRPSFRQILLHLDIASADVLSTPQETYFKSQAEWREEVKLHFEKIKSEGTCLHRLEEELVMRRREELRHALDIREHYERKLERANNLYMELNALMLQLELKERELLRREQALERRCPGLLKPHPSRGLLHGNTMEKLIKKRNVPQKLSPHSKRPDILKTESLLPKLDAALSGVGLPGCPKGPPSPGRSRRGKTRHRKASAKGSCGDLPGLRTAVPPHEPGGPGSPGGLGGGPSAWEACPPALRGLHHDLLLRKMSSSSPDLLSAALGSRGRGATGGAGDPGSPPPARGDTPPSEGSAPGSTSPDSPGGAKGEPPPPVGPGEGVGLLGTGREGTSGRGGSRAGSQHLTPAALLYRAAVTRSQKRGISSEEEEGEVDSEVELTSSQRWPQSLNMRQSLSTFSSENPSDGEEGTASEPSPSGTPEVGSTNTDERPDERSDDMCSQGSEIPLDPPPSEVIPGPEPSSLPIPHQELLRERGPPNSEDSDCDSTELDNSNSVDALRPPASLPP
The conditions noted are these: read-out: %Inh DLK.

Test [6] addresses EPHA5 (Homo sapiens, UniProt P54756). The conditions noted are these: read-out: %Inh EPHA5.
Test [7] concerns the target CAMKK1 (Homo sapiens, UniProt Q8N5S9). Conditions: read-out: %Inh CAMKK1.

Chain of EPHA5 (P54756 25-1037): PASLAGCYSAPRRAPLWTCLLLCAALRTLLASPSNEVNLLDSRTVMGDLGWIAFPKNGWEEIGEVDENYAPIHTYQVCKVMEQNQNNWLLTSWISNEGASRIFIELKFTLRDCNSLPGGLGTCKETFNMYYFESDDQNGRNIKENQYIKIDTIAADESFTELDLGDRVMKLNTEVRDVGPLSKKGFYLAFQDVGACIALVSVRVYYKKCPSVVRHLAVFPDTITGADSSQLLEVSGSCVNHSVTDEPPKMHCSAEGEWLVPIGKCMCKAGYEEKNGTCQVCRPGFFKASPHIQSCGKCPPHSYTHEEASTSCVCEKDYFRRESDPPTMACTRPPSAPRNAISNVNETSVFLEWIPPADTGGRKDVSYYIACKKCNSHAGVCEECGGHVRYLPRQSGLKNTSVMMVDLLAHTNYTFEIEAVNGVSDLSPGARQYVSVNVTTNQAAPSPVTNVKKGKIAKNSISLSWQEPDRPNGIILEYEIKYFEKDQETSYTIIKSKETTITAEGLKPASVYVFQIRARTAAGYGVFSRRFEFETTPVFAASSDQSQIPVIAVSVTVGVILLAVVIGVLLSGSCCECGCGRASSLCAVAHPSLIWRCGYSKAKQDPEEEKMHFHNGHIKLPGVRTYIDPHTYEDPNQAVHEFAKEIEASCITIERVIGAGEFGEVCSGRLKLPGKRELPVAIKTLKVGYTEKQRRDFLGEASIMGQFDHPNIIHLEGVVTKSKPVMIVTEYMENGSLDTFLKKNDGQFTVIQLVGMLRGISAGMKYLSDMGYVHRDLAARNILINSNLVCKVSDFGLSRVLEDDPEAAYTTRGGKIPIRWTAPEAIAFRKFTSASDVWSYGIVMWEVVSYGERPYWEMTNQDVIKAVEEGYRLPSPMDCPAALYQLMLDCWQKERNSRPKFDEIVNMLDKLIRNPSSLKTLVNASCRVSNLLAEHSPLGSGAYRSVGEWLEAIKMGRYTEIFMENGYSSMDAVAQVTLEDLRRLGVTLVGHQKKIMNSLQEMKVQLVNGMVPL
Chain of CAMKK1 (Q8N5S9 whole entry): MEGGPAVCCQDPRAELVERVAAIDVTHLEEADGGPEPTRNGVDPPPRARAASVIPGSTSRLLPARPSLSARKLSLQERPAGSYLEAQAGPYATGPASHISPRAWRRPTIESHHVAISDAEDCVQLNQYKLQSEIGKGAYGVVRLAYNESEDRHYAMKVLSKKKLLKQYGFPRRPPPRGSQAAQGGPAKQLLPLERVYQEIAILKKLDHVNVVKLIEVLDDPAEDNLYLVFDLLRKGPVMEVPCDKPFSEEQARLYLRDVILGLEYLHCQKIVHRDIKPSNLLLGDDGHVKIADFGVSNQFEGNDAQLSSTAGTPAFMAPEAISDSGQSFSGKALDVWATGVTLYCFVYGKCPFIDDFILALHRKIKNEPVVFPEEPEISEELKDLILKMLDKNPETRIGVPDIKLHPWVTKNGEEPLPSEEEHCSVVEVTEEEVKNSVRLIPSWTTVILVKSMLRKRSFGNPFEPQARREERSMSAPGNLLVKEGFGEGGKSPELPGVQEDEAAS

In the case of `Cn1cc(-c2cnc(N)c3c(-c4ccc5c(c4)CCN5C(=O)Cc4ccccc4)csc23)cn1` [UNC10225012A], the inhibition at 1 µM in test [1] worked out at 62%; in test [2], 4%; in test [3], 38%; in test [4], 0%; in test [5], 0%; in test [6], 0%. Moreover, the inhibition at 1 µM in test [7] amounted to 11%.
In the case of `CS(=O)(=O)Cc1ccc(Nc2nccc(-c3c(-c4cccc(NC(=O)C5CCCCC5)c4)nn4ncccc34)n2)cc1` [UNC10225159A], the inhibition at 1 µM in test [1] was 38%; in test [2], 22%; in test [3], 4%; in test [4], 15%; in test [5], 41%; in test [6] it was 0%. For the same compound, in test [7], the inhibition at 1 µM stood at 0%.
Consider `Cc1ccc(NC(=O)Nc2cccc(C(F)(F)F)c2)cc1` [UNC10225187A], for which the inhibition at 1 µM in test [1] was determined as 0%; in test [2], 17%; in test [3], 0%; in test [4], 0%; in test [5], 0%; in test [6] it was 0%. Besides, the inhibition at 1 µM in test [7] was found to be 9%.
As for `COc1cccc(OC)c1C(=O)Nc1cccc(-c2nn3ccccc3c2-c2ccnc(Nc3cccc(F)c3)n2)c1` [UNC10225310A], the inhibition at 1 µM in test [1] came out at 21%; in test [2] it was 0%; in test [3], 16%; in test [4], 0%; in test [5] it was 0%; in test [6] it was 11%. For the same compound, in test [7], the inhibition at 1 µM came out at 4%.
On to `O=c1cc(N2CCOCC2)nc2n(Cc3cccc(Cl)c3Cl)c(C3CC3)nn12` [UNC10225469A], for which the inhibition at 1 µM came out at 0% in test [1]; 9% in test [2]; 0% in test [3]; 7% in test [4]; 0% in test [5]; 6% in test [6]. Moreover, the inhibition at 1 µM in test [7] is 3%.
